Assay results taken from PMC12040169 (PLOS Biology, 2025).

Experiment: in vitro
Conditions: human, hela cells, % viability

SMILES | viability at 28.5 h, 10 µM
O=C(CCC1CCCC1)N1CCC(O)(c2cccnc2)CC1 [CBK283603] | 101%
Cc1csc(NC(=O)CN2CC=C(c3ccc(C)o3)CC2)n1 [CBK283606] | 96.5%
Cc1cc(NC(=O)CN2CC=C(c3ccc(C)o3)CC2)no1 [CBK283608] | 106%
CC(=O)NC1(c2ccc(F)cc2)CCN(Cc2cccnc2)CC1 [CBK283610] | 103%
O=C(NC1(c2ccc(F)cc2)CCCC1)c1cnn2cccnc12 [CBK283612] | 97.4%
Cc1nonc1CC(=O)NC1(c2ccc(F)cc2)CCCC1 [CBK283613] | 93.2%
Cc1nn(C)cc1C(=O)O[C@H]1C[C@@H](c2ccc(F)cc2)N(C)C1=O [CBK283615] | 103%
Cc1cccnc1C1(O)CCN(C(=O)Cc2ccccc2F)CC1 [CBK283617] | 97.8%
O=C(NC1(c2cccc(F)c2)CCCC1)c1cnccn1 [CBK283619] | 93%
Cc1nn(CC(=O)N2CCCC2)c(=O)c2cc3occc3n12 [CBK283621] | 84.5%
Cc1nn(CC(=O)N2CCCCC2C)c(=O)c2cc3occc3n12 (centres unmarked) [CBK283622] | 76.7%
Cc1nn(CC(=O)N2CCCC(C)C2)c(=O)c2cc3occc3n12 (centres unmarked) [CBK283623] | 91.6%
Cc1nn(CC(=O)N2CCCCCC2)c(=O)c2cc3occc3n12 [CBK283624] | 96.5%
O=C1CC2(CCN(C(=O)C3CCCC3)CC2)Oc2ccc(Cl)cc21 [CBK283625] | 90.9%
COc1ccccc1C1(NC(=O)CCn2cccn2)CCCC1 [CBK283626] | 103%
COc1ccccc1C1(NC(=O)CCn2nccc2C)CCCC1 [CBK283628] | 89.7%
Cc1ccc(C2=CCN(CC(=O)NCc3ccco3)CC2)o1 [CBK283632] | 107%
Cc1ccc(C2=CCN(CC(=O)Nc3ccccn3)CC2)o1 [CBK283634] | 98.7%
Cc1nc2cccnc2n1C1CCN(C(=O)NC2CCCCC2)CC1 [CBK283637] | 88.5%
CCc1nc2cccnc2n1CCNC(=O)Cc1cccs1 [CBK283639] | 98.9%
O=C(CN1CCC(c2ccc(F)cc2)CC1)N1CCCCC1 [CBK283640] | 101%
Cc1cc(O)n2nc(C)c(-c3ccc(F)cc3)c2n1 [CBK283642] | 89.3%
COc1ccccc1C1(NC(=O)c2c(C)noc2C)CCCC1 [CBK283644] | 95%
Cc1ccc(C)n1-c1cccc(C(=O)N2CCn3cnnc3C2)c1 [CBK283646] | 96.2%

SMILES | viability at 28.5 h, 10 µM
Cn1ccnc1C1(O)CCN(C(=O)CC2CCCCC2)CC1 [CBK283647] | 97.2%
COc1cccc(C2(NC(=O)Cn3nc(C)cc3C)CCCC2)c1 [CBK283648] | 98.1%
CN1C(=O)[C@@H](OC(=O)c2cccnc2)C[C@H]1c1ccc(F)cc1 [CBK283649] | 104%
O=C(c1cc[nH]n1)N1CCC2(CC1)Nc1ccccc1-n1cccc12 [CBK283652] | 96.1%
Cc1nn(CC(=O)N2CCC(C)CC2)c(=O)c2cc3occc3n12 [CBK283654] | 89.8%
Cc1nn(CC(=O)N(C(C)C)C(C)C)c(=O)c2cc3occc3n12 [CBK283655] | 98.4%
CCc1nn(CC(=O)N2CCCC(C)C2)c(=O)c2cc3occc3n12 (centres unmarked) [CBK283657] | 79.3%
COc1cccc(CC(=O)N2CCCC2c2nc3ccccc3[nH]2)c1 (centres unmarked) [CBK283665] | 99.8%
COc1ccc(CC(=O)N2CCCC2c2nc3ccccc3[nH]2)cc1 (centres unmarked) [CBK283666] | 93.4%
COc1ccc(CCC2CCN(C)CC2)c(O)c1 [CBK283668] | 104%
O=C(c1ccc(F)cc1)N1CCC(O)(c2ccccn2)CC1 [CBK283669] | 92.9%
CC1CCCCC1NC(=O)Cn1ncc2cccn2c1=O (centres unmarked) [CBK283673] | 98.7%
CCc1nn(CC(=O)N2CCCCC2)c(=O)c2cc3occc3n12 [CBK283674] | 77%
CCc1nn(CC(=O)N2CCCCCC2)c(=O)c2cc3occc3n12 [CBK283677] | 86.9%
Cc1cccnc1C1(O)CCN(C(=O)Cc2ccccc2Cl)CC1 [CBK283682] | 98.7%
O=C(c1ccc2ncccc2c1)N1CCC(c2ccncc2)CC1 [CBK283684] | 90.3%
c1csc(CNc2c(-c3cccs3)nc3cnccn23)c1 [CBK283685] | 92.7%
O=C(Cc1ccc(F)cc1)N1CCn2c(nnc2C2CC2)C1 [CBK283688] | 113%
O=C(CCCc1c[nH]c2ccccc12)N1CCn2c(nnc2C2CC2)C1 [CBK283689] | 96.6%
Cc1ccnn1CCC(=O)NC1(c2ccccc2F)CCCC1 [CBK283691] | 81.7%
CC1CCN(C(=O)Cn2c(=O)n(C(C)C)c3ncccc32)CC1 [CBK283698] | 89.5%
CC(C)n1c(=O)n(CC(=O)NCCc2ccccc2)c2cccnc21 [CBK283701] | 94.8%
O=C(c1cc2c(s1)CCC2)N1CCc2c(nc[nH]c2=O)C1 [CBK283703] | 101%
